system: mBG17 binding to SARS-CoV-2 nucleocapsid protein; assay: Peptide competition ELISA with overlapping nucleocapsid peptides; set-up: species or system mouse; details: 40 μg (approximately 30 nMol) peptide incubated with 40 μl mBG17 for 1 h at room temperature, absorbance at 450 nm, n=3, percentage of binding from no-peptide control

| Sequence | competition of mBG17 binding to the SARS-CoV-2 nucleocapsid protein in the ELISA |
| --- | --- |
| QLQQSMSSAD [a.a. 406–415, synthetic 10 a.a. peptide of SARS-CoV-2 nucleocapsid protein] | neither was able to compete |
| DDFSKQLQQS [a.a. 401–410] | almost complete competition |
| PAADLDDFSK [a.a. 296–405, synthetic 10 a.a. peptide of SARS-CoV-2 nucleocapsid protein overlapping a.a; 401–410 at the N-terminus] | neither was able to compete |

Source: PMC13588620, “Linear antibody epitope prediction using AlphaFold2” (eLife, 2026)
